Where two headings read alike, the source gives them in different places.
Molecular target: P-glycoprotein (Pgp) (Homo sapiens, UniProt P08183)
Settings: for conformation change which prevents binding of MM12.10 after UIC2 (efficient in ACT): cells pretreated with modulator/substrate, then UIC2, then FITC-MM12.10, KB-V1 and NIH 3T3 MDR1 cells
Description: The cells were trypsinized as usual, washed twice with PBS (phosphate buffered saline, pH 7,4). 10^6 cells/1 ml PBS (plus 8 mM glucose), pre-incubated for 20 minutes at 37° C. with different drugs, modulators, and without washing the cells, the first (“A”) monoclonal antibody was added to the samples. After a further 30 minutes incubation (at 37° C.) an FITC or 5-sFx conjugated second (“B”) antibody was added to the samples (again without washing the cells), and were incubated at 37° C. for another 30 minutes. In case of the UIC2-shift test the cells were incubated with UIC2 antibody, washed twice, and incubated with goat anti-mouse IgG2a FITC conjugate (F/P=4,3, Sigma) on ice in 100 μl PBS for 45 minutes. The samples washed twice were resuspended in 500 μl PBS, and analyzed in flow cytometer. The antibody concentrations used were: 8 μg/ml MRK16, MC57, MM8.15, MM12.10 and 10 μg/ml UIC2. Daunorubicine (DNR) and calcein accumulation tests: see Goda, K. et al.: Practical guide to physical analysis of cell surface receptors, Ed.: Krasznai, Z. and Mátyus, L., pp. 110-125 (1998); Homolya, L., Holló, Zs., Germann, U. A., Pastan, L, Gottesman, M. M. and Sarkadi, B.: Fluorescent cellular indicators are extruded by the multidrug resistance protein. Journal of Biological Chemistry 268 21493-21496 (1993); Holló, Zs., Homolya, L., Davis, C. W. and Sarkadi, B.: Calcein accumulation as a fluorimetric functional assay of the multidrug trasporter. Biochimica et Biophysica Acta 1191 384-388 199420,21.
The average fluorescence intensities per cell were determined by Becton Dickinson FACScan (Mountain View, Calif.). Dead cells were excluded from the analysis by propidium-iodate staining. The fluorescence signals were plotted on logarithmic scale, the two-level analysis was carried out by BDIS CellQuest and FloWin softwares (SoftFlow Ltd., Pécs, Hungary).
The cells are then treated with the first (“A”) antibody (incubation with or without UIC2, MM8.1 or MC57) for 30 minutes, and the cells are labelled with FITC-MM12.10 (“B”) antibody The curves are flow cytometry histograms from representative measurement each. Continous line: control without “A”; bold line: “A”=UIC2; dotted line: “A”=MM8.15 (a-d) or MC57 (e-f). Binding of the “A” antibodies was verified in two independent experiments, with indirect immunfluorescence.
The ratio of average FITC MM12.10 fluorescence intensities, with and without UIC2 pretreatment give the Rcompetition values (black columns). Cells were pretreated for 20 minutes with reverting agents, and incubated for further 20 minutes with UIC2 antibody, finally the FITC-MM12.10 antibody was used (further 30 minutes incubation). Cells were not washed between the incubation steps. […] UIC2-shift was detected by indirect immunfluorescence; the white columns show the ratio of the average fluorescence intensities detected with and without the reverting treatments (Rshift). On the insert figure the same UIC2-shift data are plotted on magnified scale. The average of 4-6 independent measurements (±SEM) are shown.
ACT tests were carried out on NIH3T3 MDR1 cells, with different antibody combinations. Following UIC2 or MM12.10 (not conjugated with stain) pretreatment the cells are labelled with FITC or 5sFx conjugated MM12.10, UIC2, MRK16 and MM18.15 antibodies. Before adding the antibodies the cells are pretreated with CSA (grey columns) or not (black columns).

Chain of P-glycoprotein (Pgp) (P08183 whole entry): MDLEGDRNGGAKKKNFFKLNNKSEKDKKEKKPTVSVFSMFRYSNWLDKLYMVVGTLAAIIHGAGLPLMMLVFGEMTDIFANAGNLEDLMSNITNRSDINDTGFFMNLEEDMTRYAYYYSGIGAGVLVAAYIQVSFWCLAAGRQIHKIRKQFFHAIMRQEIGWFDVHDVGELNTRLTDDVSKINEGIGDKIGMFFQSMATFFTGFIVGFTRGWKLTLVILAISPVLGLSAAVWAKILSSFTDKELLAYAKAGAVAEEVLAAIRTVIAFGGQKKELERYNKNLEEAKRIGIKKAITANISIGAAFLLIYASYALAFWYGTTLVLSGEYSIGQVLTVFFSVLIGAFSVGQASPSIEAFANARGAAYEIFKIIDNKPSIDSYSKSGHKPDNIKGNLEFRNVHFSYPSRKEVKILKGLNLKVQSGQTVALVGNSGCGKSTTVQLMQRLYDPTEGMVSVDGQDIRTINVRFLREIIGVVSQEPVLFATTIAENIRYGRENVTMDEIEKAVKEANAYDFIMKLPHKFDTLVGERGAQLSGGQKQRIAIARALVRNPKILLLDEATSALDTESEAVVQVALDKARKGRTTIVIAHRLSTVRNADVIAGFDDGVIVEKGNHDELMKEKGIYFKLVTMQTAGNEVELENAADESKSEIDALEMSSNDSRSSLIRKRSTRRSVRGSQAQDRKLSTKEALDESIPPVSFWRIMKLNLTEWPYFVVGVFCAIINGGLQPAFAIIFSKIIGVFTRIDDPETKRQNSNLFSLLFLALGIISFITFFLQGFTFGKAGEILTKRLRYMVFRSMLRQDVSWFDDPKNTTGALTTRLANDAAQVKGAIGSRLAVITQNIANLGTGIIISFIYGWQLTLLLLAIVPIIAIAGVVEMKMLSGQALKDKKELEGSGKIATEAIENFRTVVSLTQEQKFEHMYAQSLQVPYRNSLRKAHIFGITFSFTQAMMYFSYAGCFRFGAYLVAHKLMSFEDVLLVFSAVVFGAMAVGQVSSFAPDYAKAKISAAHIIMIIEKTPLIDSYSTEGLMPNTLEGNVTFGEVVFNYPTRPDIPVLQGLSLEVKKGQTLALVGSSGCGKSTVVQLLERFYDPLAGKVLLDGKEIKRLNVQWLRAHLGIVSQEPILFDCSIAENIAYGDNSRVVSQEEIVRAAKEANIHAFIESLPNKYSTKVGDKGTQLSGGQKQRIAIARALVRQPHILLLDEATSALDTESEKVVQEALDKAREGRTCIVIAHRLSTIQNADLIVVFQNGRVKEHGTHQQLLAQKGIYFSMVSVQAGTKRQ

Molecule	conformation change which prevents binding of MM12.10 after UIC2 (efficient in ACT)	conformation change which prevents binding of MM12.10 after UIC2 (efficient in ACT) (listed as valinomycin)	Rcompetition value in ACT after ATP depletion
CC(C)[C@@H]1NC(=O)[C@H](C)OC(=O)[C@@H](C(C)C)NC(=O)[C@@H](C(C)C)OC(=O)[C@H](C(C)C)NC(=O)[C@H](C)OC(=O)[C@@H](C(C)C)NC(=O)[C@@H](C(C)C)OC(=O)[C@H](C(C)C)NC(=O)[C@H](C)OC(=O)[C@@H](C(C)C)NC(=O)[C@@H](C(C)C)OC1=O [valinomycine]	accomplishes the conformation change	efficient	–
gramicidin	doesn't	–	–
C/C=C/C[C@@H](C)C(=O)[C@H]1C(=O)N[C@@H](C(C)C)C(=O)N(C)CC(=O)N(C)[C@@H](CC(C)C)C(=O)N[C@@H](C(C)C)C(=O)N(C)[C@@H](CC(C)C)C(=O)N[C@@H](C)C(=O)N[C@H](C)C(=O)N(C)[C@@H](CC(C)C)C(=O)N(C)[C@@H](CC(C)C)C(=O)N(C)[C@@H](C(C)C)C(=O)N1C [PSC 833]	accomplishes the conformation change	–	–
CC[C@H]1/C=C/C=C/C[C@@H](C)[C@H](O)[C@@](C)(O)C(=O)[C@@H](C)[C@H](O)[C@@H](C)C(=O)[C@@H](C)[C@H](O)[C@@H](C)/C=C/C(=O)O[C@@H]2[C@H](C)[C@H](CC1)O[C@]1(CC[C@H](C)[C@H](C[C@@H](C)O)O1)[C@H]2C [oligomicin]	–	–	big
